In the data set the test system is GENE-TOX genotoxicity assays, various organisms and cells. Description: GENE-TOX mutagenicity studies. As to conditions: for call: Assay Type: In vivo carcinogenicity studies.
Where [1] appears, read: Species/Cell Type: Hordeum vulgare (barley), Assay Type: Chromosome aberrations, Assay Code: HOC+D, Dose Response: With dose response, Evaluation Type: Evaluation A (Pre-1980).
Where [2] appears, read: Species/Cell Type: Salmonella typhimurium (one or more of the five standard strains: TA98, TA100, TA1535, TA1537, and TA1538), Assay Type: Histidine reverse gene mutation, Ames assay, Assay Code: SAL+*, Activation: With metabolic activation, Evaluation Type: Evaluation A (Pre-1980).
Where [3] appears, read: Species/Cell Type: Nonhuman, Assay Code: CCG+, Evaluation Type: Evaluation A (Pre-1980).
Setting [4] is: Species/Cell Type: Salmonella typhimurium (one or more of the five standard strains: TA98, TA100, TA1535, TA1537, and TA1538), Assay Type: Histidine reverse gene mutation, Ames assay, Assay Code: SAL-, Evaluation Type: Evaluation A (Pre-1980).

The structures appear in SMILES notation. Activity calls are given as the source filed them. How the calls were made is not given here.

As for `O=C1C=C(N2CC2)C(=O)C(N2CC2)=C1N1CC1`, the mutagenic call is “active; positive” (Species/Cell Type: Drosophila melanogaster, Assay Type: Sex-linked recessive lethal gene mutation, Assay Code: SRL+, Evaluation Type: Evaluation A (Pre-1980)); “active; positive” (Species/Cell Type: Drosophila melanogaster, Sex: Male, Assay Type: Heritable translocation test, chromosome aberrations, Assay Code: DHT+, Evaluation Type: Evaluation A (Pre-1980)); “active; positive” (Species/Cell Type: Glycine max (soybean), Assay Type: Gene mutation, Assay Code: GLM+, Evaluation Type: Evaluation A (Pre-1980)); “active; positive” under setting [1]; “no conclusion” (Species/Cell Type: Human lymphocytes or leukocytes, Assay Type: Chromosome aberrations in vitro, Assay Code: CY7T, Evaluation Type: Evaluation A (Pre-1980)); “active; positive” (Species/Cell Type: Human lymphocytes, Assay Type: Sister-chromatid exchange (SCE) in vitro, Assay Code: SCL+D, Dose Response: With dose response, Evaluation Type: Evaluation A (Pre-1980)). Further, the mutagenic call was “active; positive” (Species/Cell Type: Human, Assay Type: Sister-chromatid exchange (SCE) in vitro, Assay Code: SC1+D, Dose Response: With dose response, Evaluation Type: Evaluation A (Pre-1980)); “no conclusion” (Species/Cell Type: Mammalian germ cells, Sex: Male, Assay Type: Chromosome aberrations in vivo, Assay Code: CY9T, Evaluation Type: Evaluation A (Pre-1980)); “active; positive” (Species/Cell Type: Mammalian oocytes or early embryo, Assay Type: Chromosome aberrations in vivo, Assay Code: CYO+, Evaluation Type: Evaluation A (Pre-1980)); “active; positive” (Species/Cell Type: Mammalian polychromatic erythrocytes, Assay Type: Micronucleus test, chromosome aberrations, Assay Code: MNT+, Evaluation Type: Evaluation A (Pre-1980)); “active; positive” (Species/Cell Type: Neurospora crassa, Assay Type: Forward gene mutation, Assay Code: NEF+, Evaluation Type: Evaluation A (Pre-1980)); “active; positive” (Species/Cell Type: Nonhuman, Assay Type: Sister-chromatid exchange (SCE) in vitro, Assay Code: SC2+D, Dose Response: With dose response, Evaluation Type: Evaluation A (Pre-1980)). The mutagenic call reads like this: (Species/Cell Type: Nonhuman, Assay Type: Sister-chromatid exchange (SCE) in vivo, Assay Code: SC3+D, Dose Response: With dose response, Evaluation Type: Evaluation A (Pre-1980)) “active; positive”; (Species/Cell Type: Rodents, Sex: Female, Assay Type: Dominant lethal test, Assay Code: DLTF+D, Dose Response: With dose response, Evaluation Type: Evaluation A (Pre-1980)) “active; positive”; (Species/Cell Type: Rodents, Sex: Male, Assay Type: Dominant lethal test, Assay Code: DLT+D, Dose Response: With dose response, Evaluation Type: Evaluation A (Pre-1980)) “active; positive”; (Species/Cell Type: Saccharomyces cerevisiae, Assay Type: Mitotic recombination or gene conversion, Assay Code: YEC+, Evaluation Type: Evaluation A (Pre-1980)) “active; positive”; (Species/Cell Type: Saccharomyces cerevisiae, Assay Type: Reverse gene mutation, Assay Code: YER+, Evaluation Type: Evaluation A (Pre-1980)) “active; positive”; (Species/Cell Type: Salmonella typhimurium, Escherichia coli, Serratia marcesens, Assay Type: Forward and reverse gene mutation, host-mediated assay, Assay Code: HMN+, Evaluation Type: Evaluation A (Pre-1980)) “active; positive”. In addition, under “Species/Cell Type: Nonhuman, Assay Code: CCG+L, Evaluation Type: Evaluation A (Pre-1980)”, the call is “active; positive”.
For `CCOP(=S)(OCC)SCSC(C)(C)C`, the mutagenic call under setting [1] was “active; positive”.
Consider `OC[C@@H](O)[C@@H](O[C@H]1O[C@H](CO)[C@@H](O)[C@H](O)[C@H]1O)[C@H](O)[C@@H](O)CO`, for which the mutagenic call (Species/Cell Type: Mammalian polychromatic erythrocytes, Assay Type: Micronucleus test, chromosome aberrations, Assay Code: MNT-, Evaluation Type: Evaluation B (Post-1980)) was “inactive; negative”.
As to `Cc1ccc2ccc3cc4ccccc4cc3c2c1`, the mutagenic call was “active; positive” (Species/Cell Type: Nonhuman, Assay Type: Sister-chromatid exchange (SCE) in vitro, Assay Code: SC2+D, Dose Response: With dose response, Evaluation Type: Evaluation B (Post-1980)) and “active; positive” under setting [2].
For the compound `O=[N+]([O-])c1ccc2[nH]ncc2c1`, for the setting “Species/Cell Type: Salmonella typhimurium (one or more of the five standard strains: TA98, TA100, TA1535, TA1537, and TA1538), Assay Type: Histidine reverse gene mutation, Ames assay, Assay Code: SAL+, Evaluation Type: Evaluation A (Pre-1980)”, the mutagenic call is “active; positive”.
For the compound `Cc1ccc(N)c(N)c1`, the mutagenic call (Species/Cell Type: Mammalian polychromatic erythrocytes, Assay Type: Micronucleus test, chromosome aberrations, Assay Code: MNT+, Evaluation Type: Evaluation B (Post-1980)) is “active; positive”.
For the compound `COc1ccc(N)c(OC)c1`, the call (Species/Cell Type: Nonhuman, Assay Code: CCG-, Evaluation Type: Evaluation A (Pre-1980)) is “inactive; negative”.
With `O=C1C=CCO1`, the mutagenic call (Species/Cell Type: Bacillus subtilis (H17 vs M45), Assay Type: Rec-assay, spot test, DNA effects (bacterial DNA repair), Assay Code: REW-, Evaluation Type: Evaluation A (Pre-1980)) was “inactive; negative”.
Turning to `CCN(CC)CCNc1ccc(C(=O)O)c2sc3ccccc3c(=O)c12`, for the setting “Species/Cell Type: Fischer rat embryo (RLV/1706) cells, Assay Type: Cell transformation, viral enhanced, Assay Code: CTR+, Evaluation Type: Evaluation A (Pre-1980)”, the mutagenic call is “active; positive”.
Regarding `c1cc2ccc3cc4cccc5ccc6cc(c1)c2c3c6c54`, under setting [2], the mutagenic call was “active; positive”.
For the compound `O=C(O)c1cc(I)cc(I)c1I`, for the setting “Species/Cell Type: Hordeum vulgare (barley), Assay Type: Chromosome aberrations, Assay Code: HOC+, Evaluation Type: Evaluation A (Pre-1980)”, the mutagenic call was “active; positive”.
For `CC[N+](C)(CC)CCC[n+]1c(-c2ccccc2)c2cc(N)ccc2c2ccc(N)cc21`, the mutagenic call (Species/Cell Type: Mammalian cell culture, nonhuman, Assay Type: Micronucleus test in vitro, chromosome aberrations, Assay Code: MN&+, Evaluation Type: Evaluation A (Pre-1980)) is “active; positive”.
Turning to `CCCCCCCCCCCCCC(=O)O[C@@H]1[C@@H](C)[C@@]2(O)[C@@H](C=C(CO)C[C@]3(OC)C(=O)C(C)=C[C@@H]23)[C@@H]2C(C)(C)[C@]12OC(C)=O`, the mutagenic call was “inactive; negative” (Species/Cell Type: Nonhuman, Assay Type: Sister-chromatid exchange (SCE) in vitro, Assay Code: SC2-, Evaluation Type: Evaluation A (Pre-1980)) and “no conclusion” (Species/Cell Type: Nonhuman, Assay Type: Sister-chromatid exchange (SCE) in vitro, Assay Code: SC2T, Evaluation Type: Evaluation B (Post-1980)).
As for `C#C[C@]1(O)CC[C@H]2[C@@H]3CCC4=CC(=O)CC[C@@H]4[C@H]3CC[C@@]21C`, the mutagenic call (Species/Cell Type: Human, Sex: Male, Assay Type: Sperm morphology, Assay Code: SPH+, Evaluation Type: Evaluation A (Pre-1980)) was “active; positive”. In addition, under setting [3], the call is “active; positive”.
`CCCCSC(=Nc1cccnc1)SCc1ccc(C(C)(C)C)cc1`: where the note is “Species/Cell Type: Salmonella typhimurium, Assay Type: Forward and reverse gene mutation, host-mediated assay, Assay Code: HMA-, Evaluation Type: Evaluation A (Pre-1980)”, the mutagenic call was “inactive; negative”.
With `[O-2].[O-2].[O-2].[Sb+3].[Sb+3]`, the mutagenic call (Species/Cell Type: Bacillus subtilis (H17 vs M45), Assay Type: Rec-assay, spot test, DNA effects (bacterial DNA repair), Assay Code: REW+, Evaluation Type: Evaluation A (Pre-1980)) was “active; positive”.
As to `CCN(CC)c1ccc(N=Nc2ccccc2)cc1`, the mutagenic call was “inactive; negative” (Species/Cell Type: Saccharomyces cerevisiae, Assay Type: Mitotic recombination or gene conversion, Assay Code: YEH-, Evaluation Type: Evaluation A (Pre-1980)) and “inactive; negative” under setting [4].
As to `Nc1ccc(N)c(N)c1`, the mutagenic call is “inactive; negative” (Species/Cell Type: Mouse, Sex: Male, Assay Type: Sperm morphology, Assay Code: SPI-, Evaluation Type: Evaluation A (Pre-1980)); “no conclusion” (Species/Cell Type: Salmonella typhimurium (one or more of the five standard strains: TA98, TA100, TA1535, TA1537, and TA1538), Assay Type: Histidine reverse gene mutation, Ames assay, Assay Code: SALT, Evaluation Type: Evaluation A (Pre-1980)).
In the case of `C=CCc1ccc2c(c1)OCO2`, the mutagenic call is, setting by setting: (Species/Cell Type: Drosophila melanogaster, Assay Type: Sex-linked recessive lethal gene mutation, Assay Code: SRL-, Evaluation Type: Evaluation A (Pre-1980)) “inactive; negative”; (Species/Cell Type: Escherichia coli polA (W3110 vs P3478), Assay Type: Rec-assay, DNA effects (bacterial DNA repair), Assay Code: RE2+, Evaluation Type: Evaluation A (Pre-1980)) “active; positive”; (Species/Cell Type: Escherichia coli polA (W3119 vs P3478), Assay Type: Rec-assay, DNA effects (bacterial DNA repair), Assay Code: RE1+, Evaluation Type: Evaluation A (Pre-1980)) “active; positive”; (Species/Cell Type: Human diploid fibroblasts, Assay Type: Unscheduled DNA synthesis (UDS) in vitro, DNA effects, Assay Code: UDH-*, Activation: With metabolic activation, Evaluation Type: Evaluation A (Pre-1980)) “inactive; negative”; (Species/Cell Type: Mammalian polychromatic erythrocytes, Assay Type: Micronucleus test, chromosome aberrations, Assay Code: MNTT, Evaluation Type: Evaluation A (Pre-1980)) “no conclusion”; (Species/Cell Type: Mouse, Sex: Male, Assay Type: Sperm morphology, Assay Code: SPIT, Evaluation Type: Evaluation A (Pre-1980)) “no conclusion”. Also, the mutagenic call (Species/Cell Type: Nonhuman, Assay Type: Sister-chromatid exchange (SCE) in vitro, Assay Code: SC2+, Evaluation Type: Evaluation B (Post-1980)) is “active; positive”; the mutagenic call (Species/Cell Type: Saccharomyces cerevisiae, Assay Type: Mitotic recombination or gene conversion, Assay Code: YEH+, Evaluation Type: Evaluation A (Pre-1980)) was “active; positive”; the mutagenic call under setting [4] was “inactive; negative”; the mutagenic call (Species/Cell Type: Salmonella typhimurium, Assay Type: Forward and reverse gene mutation, host-mediated assay, Assay Code: HMA+, Evaluation Type: Evaluation A (Pre-1980)) was “active; positive”; the mutagenic call (Species/Cell Type: Syrian hamster embryo (SHE) cells, Assay Type: Cell transformation, clonal assay, Assay Code: CTC+, Evaluation Type: Evaluation A (Pre-1980)) is “active; positive”; the mutagenic call (Species/Cell Type: Tradescantia species, Assay Type: Gene mutation, Assay Code: TRM+D, Dose Response: With dose response, Evaluation Type: Evaluation A (Pre-1980)) was “active; positive”. Also, the call under setting [3] is “active; positive”.

The record behind these values is PubChem BioAssay AID1259408 (Genetic Toxicology Data Bank (GENE-TOX), 2018).
